Data set [1] can be described thus: Molar enthalpy of transition or fusion. The conditions noted are these: DSC.

Numbers after ± are expanded uncertainties.

On to `[Ag+].[Ag+].[S-2]` [silver sulfide], for which the “Molar enthalpy of transition or fusion” value in data set [1] (Crystal 2) is 0.287 ± 0.143 kcal/mol; in data set [1] (Crystal 3) it was 1 ± 0.191 kcal/mol. Also, the Triple point temperature came out at 858 ± 1 K (Crystal 2, DSC); 865 ± 10 K (Crystal 2, Volume change); 451 ± 1 K (Crystal 3, DSC); 456 ± 5 K (Crystal 3, Volume change).

These data come from the NIST ThermoML archive (doi:10.1016/j.tca.2017.12.013).
